Calls of active or inactive are those of the source. How the calls were made is not given here.
System: rodent carcinogenicity bioassays, tumor incidence
Assay: CCRIS carcinogenicity studies
Summary of the method: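 Archive of carcinogenicity, mutagenicity, tumor promotion and tumor inhibition results drawn from journals, NCI reports and other sources, expert-reviewed; covers 1985-2011 and is no longer updated.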

## C1COCCO1
Species: MOUSE, Strain/Sex: B6C3F1/FEMALE, Route: ORAL, Dose: 0, 0.5, 1.0% (V/V) IN DRINKING WATER, Dose: 0, 0.5, 1.0% (V/V) IN DRINKING WATER, Tumor Site: Type of Lesion: LIVER: HEPATOCELLULAR CARCINOMA OR ADENOMA
  carcinogen call: active; positive
Species: MOUSE, Strain/Sex: B6C3F1/MALE, Route: ORAL, Dose: 0, 0.5, 1.0% (V/V) IN DRINKING WATER, Dose: 0, 0.5, 1.0% (V/V) IN DRINKING WATER, Tumor Site: Type of Lesion: LIVER: HEPATOCELLULAR CARCINOMA OR ADENOMA
  carcinogen call: active; positive
Species: MOUSE, Strain/Sex: BDF1/FEMALE, Route: ORAL, Dose: 0, 500, 2000, 8000 PPM IN DRINKING WATER FOR 104 WK (STUDY DURATION: 105 WK), Dose: 0, 500, 2000, 8000 PPM IN DRINKING WATER FOR 104 WK (STUDY DURATION: 105 WK), Tumor Site: Type of Lesion: LIVER: HEPATOCELLULAR ADENOMA, HEPATOCELLULAR CARCINOMA
  carcinogen call: active; positive
Species: MOUSE, Strain/Sex: BDF1/MALE, Route: ORAL, Dose: 0, 500, 2000, 8000 PPM IN DRINKING WATER FOR 104 WK (STUDY DURATION: 105 WK), Dose: 0, 500, 2000, 8000 PPM IN DRINKING WATER FOR 104 WK (STUDY DURATION: 105 WK), Tumor Site: Type of Lesion: LIVER: HEPATOCELLULAR ADENOMA, HEPATOCELLULAR CARCINOMA
  carcinogen call: active; positive
Species: RAT, Strain/Sex: F344/FEMALE, Route: ORAL, Dose: 0, 200, 1000, 5000 PPM IN DRINKING WATER FOR 104 WK (STUDY DURATION: 105 WK), Dose: 0, 200, 1000, 5000 PPM IN DRINKING WATER FOR 104 WK (STUDY DURATION: 105 WK), Tumor Site: Type of Lesion: NASAL CAVITY: TUMOR, LIVER: HEPATOCELLULAR ADENOMA, HEPATOCELLULAR CARCINOMA, MAMMARY GLAND: TUMOR, Tumor Site: Type of Lesion: NASAL CAVITY: TUMOR, LIVER: HEPATOCELLULAR ADENOMA, HEPATOCELLULAR CARCINOMA, MAMMARY GLAND: TUMOR
  carcinogen call: active; positive
Species: RAT, Strain/Sex: F344/MALE, Route: ORAL, Dose: 0, 200, 1000, 5000 PPM IN DRINKING WATER FOR 104 WK (STUDY DURATION: 105 WK), Dose: 0, 200, 1000, 5000 PPM IN DRINKING WATER FOR 104 WK (STUDY DURATION: 105 WK), Tumor Site: Type of Lesion: NASAL CAVITY: TUMOR, LIVER: HEPATOCELLULAR ADENOMA, HEPATOCELLULAR CARCINOMA, PERITONEUM: MESOTHELIOMA, SUBCUTIS: FIBROM, Tumor Site: Type of Lesion: NASAL CAVITY: TUMOR, LIVER: HEPATOCELLULAR ADENOMA, HEPATOCELLULAR CARCINOMA, PERITONEUM: MESOTHELIOMA, SUBCUTIS: FIBROM
  carcinogen call: active; positive
Species: RAT, Strain/Sex: OSBORNE-MENDEL/FEMALE, Route: ORAL, Dose: 0, 0.5, 1.0% (V/V) IN DRINKING WATER, Dose: 0, 0.5, 1.0% (V/V) IN DRINKING WATER, Tumor Site: Type of Lesion: NASAL TURBINATES: SQUAMOUS CELL CARCINOMA, LIVER: HEPATOCELLULAR ADENOMA
  carcinogen call: active; positive
Species: RAT, Strain/Sex: OSBORNE-MENDEL/MALE, Route: ORAL, Dose: 0, 0.5, 1.0% (V/V) IN DRINKING WATER, Dose: 0, 0.5, 1.0% (V/V) IN DRINKING WATER, Tumor Site: Type of Lesion: NASAL TURBINATES: SQUAMOUS CELL CARCINOMA
  carcinogen call: active; positive
Species: RAT, Strain/Sex: SHERMAN/MALE,FEMALE, Route: ORAL, Dose: 0.01, 0.1, 1.0% IN DRINKING WATER FOR UP TO 716 D, Dose: 0.01, 0.1, 1.0% IN DRINKING WATER FOR UP TO 716 D, Tumor Site: Type of Lesion: LIVER: HEPATOCELLULAR CARCINOMA, CHOLANGIOMA
  carcinogen call: active; positive
Species: RAT, Strain/Sex: SPRAGUE-DAWLEY/MALE, Route: ORAL, Dose: 0.75, 1.0, 1.4, 1.8% IN DRINKING WATER FOR 13 MO, Dose: 0.75, 1.0, 1.4, 1.8% IN DRINKING WATER FOR 13 MO, Tumor Site: Type of Lesion: NASAL CAVITY: SQUAMOUS CELL CARCINOMA, ADENOCARCINOMA, LIVER: HEPATOMA, HEPATOCELLULAR CARCINOMA
  carcinogen call: active; positive
Species: RAT, Strain/Sex: WISTAR/MALE, Route: ORAL, Dose: 1% IN DRINKING WATER FOR 63 WK, Tumor Site: Type of Lesion: LIVER: NEOPLASTIC NODULE, HEPATOCELLULAR CARCINOMA
  carcinogen call: active; positive

## c1ccc2c(c1)ccc1ccccc12
Species: RAT, Strain/Sex: OSBORNE-MENDEL/FEMALE, Route: INTRAPULMONARY IMPLANT, Dose: 0, 1, 3, 10 MG IN BEESWAX AND TRIOCTANOIN IMPLANTED IN LUNG (STUDY DURATION: 141 WK), Dose: 0, 1, 3, 10 MG IN BEESWAX AND TRIOCTANOIN IMPLANTED IN LUNG (STUDY DURATION: 141 WK)
  carcinogen call: inactive; negative

## CC1=CC(=C(c2ccc(N)cc2)c2ccc(N)cc2)C=CC1=N
Species: HUMAN, Route: ORAL, INHALATION, DERMAL, Tumor Site: Type of Lesion: URINARY BLADDER
  carcinogen call: active; positive
Species: RAT, Strain/Sex: SPRAGUE-DAWLEY/FEMALE, Route: GAVAGE, Dose: 0, 200 MG/KG BW 2/WK FOR 8 WK WITH A 1 WK REST AFTER 2 WK THEN STARTING AT 9 WK 100 MG/KG BW 2/WK FOR DURATION OF STUDY
  carcinogen call: inactive; negative
Species: RAT, Strain/Sex: SPRAGUE-DAWLEY/MALE, Route: GAVAGE, Dose: 0, 200 MG/KG BW 2/WK FOR 8 WK WITH A 1 WK REST AFTER 2 WK THEN STARTING AT 9 WK 100 MG/KG BW 2/WK FOR DURATION OF STUDY
  carcinogen call: inactive; negative

## CCc1nc(N)nc(N)c1-c1ccc(Cl)cc1
Species: MOUSE, Strain/Sex: B6C3F1/FEMALE, Route: ORAL, Dose: 0, 500, 1000 PPM IN DIET, Dose: 0, 500, 1000 PPM IN DIET
  carcinogen call: inactive; negative
Species: RAT, Strain/Sex: F344/FEMALE, Route: ORAL, Dose: 0, 200, 400 PPM IN DIET 5 D/WK, Dose: 0, 200, 400 PPM IN DIET 5 D/WK
  carcinogen call: inactive; negative
Species: RAT, Strain/Sex: F344/MALE, Route: ORAL, Dose: 0, 200, 400 PPM IN DIET 5 D/WK, Dose: 0, 200, 400 PPM IN DIET 5 D/WK
  carcinogen call: inactive; negative

## O=[N+]([O-])c1cc(N(CCO)CCO)ccc1NCCO
Species: MOUSE, Strain/Sex: B6C3F1/FEMALE, Route: ORAL, Dose: 0, 10000, 20000 PPM IN DIET FOR 104 WK, Dose: 0, 10000, 20000 PPM IN DIET FOR 104 WK
  carcinogen call: inactive; negative
Species: MOUSE, Strain/Sex: B6C3F1/MALE, Route: ORAL, Dose: 0, 5000, 10000 PPM IN DIET FOR 104 WK, Dose: 0, 5000, 10000 PPM IN DIET FOR 104 WK
  carcinogen call: inactive; negative
Species: RAT, Strain/Sex: F344/FEMALE, Route: ORAL, Dose: 0, 10000, 20000 PPM IN DIET FOR 103 WK, Dose: 0, 10000, 20000 PPM IN DIET FOR 103 WK
  carcinogen call: inactive; negative
Species: RAT, Strain/Sex: F344/MALE, Route: ORAL, Dose: 0, 5000, 10000 PPM IN DIET FOR 103 WK, Dose: 0, 5000, 10000 PPM IN DIET FOR 103 WK
  carcinogen call: inactive; negative

## Nc1ccc(O)c(N)c1
Species: MOUSE, Strain/Sex: B6C3F1/FEMALE, Route: GAVAGE, Dose: 0, 19, 38 MG/KG IN CORN OIL 5 D/WK FOR 104 WK (STUDY DURATION: 2 YR), Dose: 0, 19, 38 MG/KG IN CORN OIL 5 D/WK FOR 104 WK (STUDY DURATION: 2 YR)
  carcinogen call: inactive; negative
Species: RAT, Strain/Sex: F344/FEMALE, Route: GAVAGE, Dose: 0, 12.5, 25 MG/KG IN CORN OIL 5 D/WK FOR 104 WK (STUDY DURATION: 2 YR), Dose: 0, 12.5, 25 MG/KG IN CORN OIL 5 D/WK FOR 104 WK (STUDY DURATION: 2 YR)
  carcinogen call: inactive; negative
Species: RAT, Strain/Sex: F344/MALE, Route: GAVAGE, Dose: 0, 12.5, 25 MG/KG IN CORN OIL 5 D/WK FOR 104 WK (STUDY DURATION: 2 YR)
  carcinogen call: inactive; negative

## O=[N+]([O-])c1ccc2c(ccc3c4ccccc4ccc23)c1
Species: MOUSE, Strain/Sex: ICR/FEMALE, Route: INTRAPERITONEAL, Dose: 0, 100 NMOL (TOTAL DOSE) ADMINISTERED IN 3 SUBDOSES OF 1/7, 2/7, AND 4/7 ON DAYS 1, 8 AND 15 OF LIFE, RESPECTIVELY (STUD
  carcinogen call: inactive; negative
Species: MOUSE, Strain/Sex: ICR/MALE, Route: INTRAPERITONEAL, Dose: 0, 100 NMOL (TOTAL DOSE) ADMINISTERED IN 3 SUBDOSES OF 1/7, 2/7, AND 4/7 ON DAYS 1, 8 AND 15 OF LIFE, RESPECTIVELY (STUD
  carcinogen call: inactive; negative

## Nc1c(Cl)cc(Cl)cc1Cl
Species: MOUSE, Strain/Sex: CD-1/MALE, Route: ORAL, Dose: 6000, 12000 PPM IN DIET, Tumor Site: Type of Lesion: BLOOD VESSELS
  carcinogen call: active; positive
